This passage reports IC50 results from PubChem BioAssay AID1159565 (GlaxoSmithKline (GSK), 2015).

Each structure is given as a SMILES string. The source made the active and inactive calls. How the calls were made is not given here.

The subject of this test is T. cruzi-infected H9C2 cardiomyocytes, high-content imaging. Put plainly: anti-T. cruzi activity in infected cardiomyocytes – imaging, H9C2 host cardiomyocytes, host toxicity (AID 1159565).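 Further: infected cells incubated 72 h after plating.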
Where [1] appears, read: measured here: H9C2 host cell toxicity.
The mark [2] stands for this setting: measured here: amastigotes per cell.

In general, IC50 refers to the concentration at which inhibition is half-maximal. On to `CCOC(=O)c1cn[nH]c1S(=O)(=O)N1CCC1c1ccccc1` (stereo not given), for which the IC50 was > 50000 nM (inactive). Further, under setting [1], the IC50 is greater than 50000 nM. This molecule returned a concentration for half-maximal inhibition (IC50) under setting [2] greater than 50000 nM.
Consider `CN(C)c1ncc(-c2cncn2CCOc2ccc(Cl)cc2)cn1`, for which the half-inhibitory concentration (IC50) was 250 nM. The molecule also had an IC50 under setting [1] greater than 50000 nM. Under setting [2], this molecule came in with an IC50 of 200 nM.
The matching figures for `O=c1[nH]cnc2c([C@@H]3O[C@H](CO)[C@@H](O)[C@H]3O)[nH]nc12`: 500 nM, greater than 50000 nM and 320 nM.
Turning to `CN(Cc1nc2c(C(=O)N3CCN(Cc4ccccc4)CC3)cccc2[nH]1)C1CCCc2cccnc21` (stereo not given), the concentration for half-maximal inhibition (IC50) was 500 nM. The IC50 under setting [1] worked out at 7900 nM. The molecule further displayed an IC50 under setting [2] of 500 nM.
In the case of `O=C(Nc1nc(-c2ccccn2)cs1)c1ccccc1-n1cnnn1`, the IC50 was 3200 nM. This molecule yielded an IC50 under setting [1] of 5000 nM. The molecule also gave an IC50 under setting [2] of 2000 nM.
The matching figures for `CN(Cc1cc2ccccc2s1)c1ncc2c(N)nc(N)nc2n1`: 3200 nM, 20000 nM and 790 nM.
In the same order, the values of `CN(Cc1ccc(F)cc1)c1ccc(OCC(=O)N2CCCCC2c2cccnc2)nn1` (stereo not given) are 400 nM, greater than 50000 nM and 400 nM.
`CCc1cccc(-n2nc(OCC(=O)NC3CCCC3)c3cccnc32)c1`: the IC50 is > 50000 nM (inactive). Under setting [1], this molecule displayed an IC50 greater than 50000 nM. Moreover, the IC50 under setting [2] is greater than 50000 nM.
Take `CC(C)N(C(=O)CN1C(=O)C(N)C(=O)N(c2ccccc2)c2ccccc21)c1ccccc1` (stereo not given): the IC50 was 320 nM. The molecule further returned an IC50 under setting [1] greater than 50000 nM. Besides, the IC50 under setting [2] was determined as 400 nM.
In the same order, the values of `Cc1ccccc1NS(=O)(=O)c1ccc2[nH]cc(C(=O)NC3CCCC(C)C3C)c(=O)c2c1` (stereo not given) are 6300 nM, 6300 nM and 3200 nM.
The matching figures for `COc1ccc2ncc(Cl)c(CCN3CC[C@@H](NCc4cc5c(cn4)OCS5)[C@H](O)C3)c2n1`: 79 nM, 25000 nM and 63 nM.
With `Cc1[nH]n2c(=O)c3c(nc2c1-c1ccc(Cl)cc1)CCCC3`, the IC50 is 1000 nM. The molecule further displayed a half-maximal inhibitory concentration (IC50) under setting [1] greater than 50000 nM. Also, the IC50 under setting [2] turned out to be 250 nM.
In the same order, the values of `CN(Cc1ccccc1)Cc1nnnn1C1CCN(Cc2ccc(-n3ccnc3)cc2)CC1` are 320 nM, greater than 50000 nM and 250 nM.
With `CN(C)c1ccc(-c2cc3nccnc3c(OC[C@H]3CCCNC3)n2)cn1`, the IC50 was > 50000 nM (inactive). Further, the IC50 under setting [1] is 20000 nM. The molecule also came in with an IC50 under setting [2] of 1600 nM.
In the same order, the values of `O=C1CN(Cc2ccco2)C2CS(=O)(=O)CC2N1c1ccc(Cl)cc1` (stereo not given) are > 50000 nM (inactive), greater than 50000 nM and greater than 50000 nM.
As to `O=C(Nc1ccc(Br)c(Cl)c1)Nc1ccc2c(c1)OCO2`, the IC50 was 5000 nM. The IC50 under setting [1] is greater than 50000 nM. The molecule also came in with an IC50 under setting [2] of 2000 nM.
The matching figures for `C=CCOCC1Cn2nc([N+](=O)[O-])nc2O1` (stereo not given): 1300 nM, greater than 50000 nM and 630 nM.
As to `CNc1cc(C)nc(C2CN(C(=O)c3n[nH]c4ccccc34)CCO2)c1` (stereo not given), the IC50 is 2500 nM. The IC50 under setting [1] is greater than 50000 nM. Also, under setting [2], the IC50 came to 790 nM.
The matching figures for `O=C1CSC(c2cccnc2)N1c1ccc(Cl)cc1Cl` (stereo not given): 250 nM, greater than 50000 nM and 160 nM.
In the same order, the values of `CN(C)CCN(C)Cc1ccc(Cl)cc1NS(=O)(=O)c1ccc(Cl)c(Cl)c1` are 2000 nM, 5000 nM and 2000 nM.
In the same order, the values of `Cc1cc(NC(=O)C2CC2)ccc1OC1CCN(Cc2ccco2)CC1` are 40000 nM, 40000 nM and 20000 nM.
For the molecule `CC1=C(C(=O)Nc2ccc(Cl)cc2)C(c2ccncc2)n2ncc(C(=O)Nc3ccccc3)c2N1` (stereo not given), the IC50 is 20 nM. Under setting [1], this molecule displayed an IC50 greater than 50000 nM. Under setting [2], this molecule returned a 50% inhibitory concentration (IC50) of 20 nM.
`CC1CCCN(S(=O)(=O)c2ccc(C(=O)Nc3nc(-c4ccccn4)cs3)cc2)C1` (stereo not given): the 50% inhibitory concentration (IC50) was 500 nM. The IC50 under setting [1] is 3200 nM. In addition, the half-inhibitory concentration (IC50) under setting [2] stood at 250 nM.
The matching figures for `O=C(Nc1nc(-c2ccccn2)cs1)C1CCc2ccccc2C1` (stereo not given): 2500 nM, 4000 nM and 2000 nM.
The matching figures for `Cc1nccn1C1CCCN(C(=O)c2cc3c(F)cccc3s2)C1` (stereo not given): 1000 nM, greater than 50000 nM and 790 nM.
In the same order, the values of `O=C(Nc1cccc(Cl)c1)Nc1ccc([N+](=O)[O-])cc1Cl` are 2000 nM, 4000 nM and 1600 nM.
As to `Cc1cc2nc(N3CC[C@H]3C(N)=O)nc(Nc3cc(C4CC4)[nH]n3)c2s1`, the IC50 was 7900 nM. The molecule further gave an IC50 under setting [1] of 500 nM. The IC50 under setting [2] came out at 4000 nM.
In the same order, the values of `COc1ccc2c(Cl)c(C(=O)N3CCC3)sc2c1Cl` are 2500 nM, greater than 50000 nM and 790 nM.
In the same order, the values of `Cc1cc(NC(=O)CC2CCCCC2)n(-c2nc3c(c(=O)[nH]2)CCC3)n1` are 320 nM, 4000 nM and 130 nM.
The matching figures for `O=C(CSc1nnc(-c2ccc3c(c2)OCO3)o1)N(Cc1ccco1)CC(F)(F)F`: 3200 nM, greater than 50000 nM and 2500 nM.
With `CS(=O)(=O)c1ccccc1C(=O)N(Cc1ccccc1)c1ccccc1`, the IC50 was > 50000 nM (inactive). Moreover, under setting [1], the IC50 is greater than 50000 nM. This molecule registered a concentration for half-maximal inhibition (IC50) under setting [2] of 40000 nM.
On to `Cc1ccc(S(=O)(=O)Nc2ccc(CN3CCN(C(=O)c4cccc(C)c4)CC3)cc2)cc1`, for which the IC50 is 320 nM. The IC50 under setting [1] was greater than 50000 nM. Further, the IC50 under setting [2] was 320 nM.
In the case of `COc1ccc2ncc(=O)n(CCN3CCC(NCc4ccc(-c5cccs5)cc4)CC3)c2n1`, the IC50 is 1600 nM. The half-maximal inhibitory concentration (IC50) under setting [1] turned out to be 7900 nM. This molecule also came in with an IC50 under setting [2] of 160 nM.
The matching figures for `O=C(CN(Cc1ccccn1)Cc1ccccn1)NC1Cc2ccccc2C1`: 13000 nM, greater than 79000 nM and 6300 nM.
As for `COc1ccc(-c2cnc(C)o2)cc1S(=O)(=O)Nc1ccc(C)cc1C`, the IC50 is 3200 nM. Also, the IC50 under setting [1] was greater than 50000 nM. Moreover, the IC50 under setting [2] is 3200 nM.
On to `O=[N+]([O-])c1ccc(-c2nnn(-c3ccc(Cl)cc3)n2)o1`, for which the IC50 is 790 nM. The molecule further came in with an IC50 under setting [1] of 10000 nM. The same molecule displayed an IC50 under setting [2] of 79 nM.
In the same order, the values of `Cc1nn(C)c(Cl)c1CN(Cc1cccnc1)Cc1ccsc1` are 320 nM, greater than 50000 nM and 320 nM.
Take `O=C(Nc1nc(-c2ccccn2)cs1)N1C[C@H]2C[C@@]2(c2ccccc2)C1`: the IC50 is 500 nM. Under setting [1], this molecule showed an IC50 of 790 nM. In addition, the IC50 under setting [2] came out at 250 nM.
In the same order, the values of `CC(C)c1cc(Nc2cc(Cc3ccccc3)nc(NC3CCC(O)CC3)n2)n[nH]1` (stereo not given) are 79 nM, 6.3 nM and 32 nM.
The matching figures for `CCn1c(NC(=O)Cc2ccc(F)cc2)nc2ccccc21`: 7900 nM, greater than 50000 nM and 4000 nM.
